# US12226400B2, “Neuroprotective disruption of Kv2.1/syntaxin interaction by small molecules” (UNIVERSITY OF PITTSBURGH-OF THE COMMONWEALTH SYSTEM OF …, priority 2018, dated 2025)
# What was measured:
# [1] = system: delayed rectifier K+ currents (Kv2.1-mediated) in rat cortical culture neurons; test: Whole-cell patch clamp of delayed rectifier K+ currents after TBOA; format: cell-based; conditions: Cpd5 incubation alone, 5 hours total
# Description: Cortical culture electrophysiology. Whole-cell patch-clamp experiments were performed on rat cortical culture neurons prepared as described in the LDH toxicity experiments. The TBOA treatment was reduced in severity in this experiment to limit extensive cell injury that would prevent adequate patch clamp recordings. Prior to recording, coverslips were treated with 50 μM TBOA in MHB for 2 hr. The treatment was terminated with 3×MHB washes and transferring the coverslip to a separate well containing MHB to rest for 2 hr prior to electrophysiology recordings and to allow for the expression of enhanced currents. For cpd5-treated groups, cells were pre-incubated for 1 hr in 10 μM cpd5 prior to the addition of TBOA. Cpd5 was also present during the TBOA and the post-TBOA incubation phases.
# Recordings were carried out using 1.5 mm diameter borosilicate glass electrodes (Sutter Instruments) made from a horizontal pipette puller at 5-7 MΩ. The internal solution contains (in mM): 100 K-gluconate, 10 KCl, 1 MgCl2, 1 CaCl2, 10 HEPES, 11 EGTA, 2.2 ATP, 0.33 GTP. The internal solution was further adjusted to pH 7.2 and to 280 mOsm with the addition of sucrose. The pH adjusted (7.2) external solution was composed of the following (in mM): 115 NaCl, 2.5 KCl, 2.0 MgCl2, 10 HEPES, 10 D-glucose, and 0.25 μM TTX. […]
# [2] = target: syntaxin 1A / Kv2.1 peptides containing the C1aB region (Homo sapiens, UniProt Q16623); test: Peptide spot array far-Western assay of syntaxin binding to Kv2.1 C1a peptides; design: species or system rat
# Source text: Peptide spot array and far-Western assay. Peptide spot arrays (15 mers) spanning the proximal C-terminus residues 451-540 of rat Kv2.1 were constructed using the Spots-synthesis method. Standard 9-fluorenylmethoxy carbonyl (Fmoc) chemistry was used to synthesize the peptides and spot them onto nitrocellulose membranes prederivatized with a polyethylene glycerol spacer (Intavis). Fmoc protected and activated amino acids were spotted in quadruplicates on 20-30 arrays on 75 by 25 mm membranes using an Intavis MultiPep robot. The nitrocellulose membrane containing the immobilized peptides were rehydrated in Tris-buffered 0.1% Tween 20 (TBST) for 10 min, and then blocked for 1 h at room temperature (RT) with gentle shaking in TBST containing 5% (w/v) nonfat dry milk and then incubated with enriched STX1A protein containing the indicated concentrations of cpd5 for 1 h at RT with gentle shaking. Next, the membrane was incubated in primary antibody for syntaxin 1A (Millipore, catalog #AB5820-50UL, RRID:AB_2216165) for 2 h at RT with gentle shaking, followed by washing with TBST. Finally, the membrane was incubated in secondary antibody (goat anti-rabbit DyLight 800, catalog #355571, Thermo Fisher Scientific) for 45 min, washed for 3 times 5 min in TBST, and visualized by infrared fluorescence (Li-Cor). Similar procedures were followed for the alanine scan study with 9-mers.
# [3] = system: layer 2/3 corticocallosal neuron AMPAR EPSCs; test: Slice electrophysiology, evoked AMPAR EPSCs in auditory cortex layer 2/3 corticocallosal neurons; format: cell-based, mouse
# Description: Stereotaxic injections for electrophysiology. Male or female ICR mice P21-30 (Jackson Laboratory) were anesthetized with 3% isoflurane (1.5% maintenance) and placed on the stereotaxic frame (Kopf). Core body temperature was maintained at ˜37° C. with a heating pad and eyes were protected with ophthalmic ointment. Lidocaine (1%) was injected under the scalp and an incision was made into the skin at the midline to expose the skull. […] A volume of ˜0.12 μl fluorospheres was pressure injected (25 psi, 10 ms duration) from capillary pipettes (Drummond Scientific) with a Picospritzer (Parker-Hannifin). After injection, the pipette was held in the brain for 2 min before slowly withdrawing. The scalp of the mouse was closed with cyanoacrylate adhesive. […] Mice were monitored for signs of postoperative stress and pain.
# Slice electrophysiology. […] Pipette capacitance was compensated and series resistance for recordings was lower than 15 MΩ and measured throughout the experiments. […]
# To evoke AMPAR EPSCs, auditory cortex layer 2/3 neurons were stimulated locally with an Isoflex stimulator (AMPI), through a glass theta electrode containing ACSF, by a single 0.15 ms duration electrical pulse every 30 sec. AMPAR EPSCs were recorded in voltage clamp mode at −70 mV (peak values were averaged over a 0.3 ms time window). […]
# syntaxin 1A / Kv2.1 peptides containing the C1aB region, sequence (Q16623 whole entry, species assumed, the tested form may be a part): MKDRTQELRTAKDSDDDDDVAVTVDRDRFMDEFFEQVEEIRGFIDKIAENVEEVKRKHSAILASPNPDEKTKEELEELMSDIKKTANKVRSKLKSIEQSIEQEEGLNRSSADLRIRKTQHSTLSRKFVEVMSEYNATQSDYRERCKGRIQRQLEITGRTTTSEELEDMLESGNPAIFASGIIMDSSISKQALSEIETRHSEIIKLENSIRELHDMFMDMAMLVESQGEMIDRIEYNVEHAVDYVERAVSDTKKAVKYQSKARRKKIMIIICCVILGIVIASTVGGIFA
compound,measurement,setting,value
"COc1ccc(CNC(=O)Nc2cccc(-c3nc4ccccc4s3)c2)cc1OC [cpd5, 3-[3-(1,3-benzothiazol-2-yl)phenyl]-1-[(3,4-dimethoxyphenyl)methyl]urea]",basal K+ current densities,[1],no significant effects
same,reduction of Kv2.1 peptides binding to syntaxin at peak values,[2]; Cpd5 100 μM,up to 60%
same,IC50,"[2]; percent inhibition compared to 0.1% DMSO, variable slope fit, read-out: IC50 for inhibition of syntaxin binding to peptides 22-28 (full C1aB domain) of the peptide array",5.5 µM
same,AMPAR EPSCs amplitude normalized to control,"[3]; 10 μM cpd5, p=0.153",97.6±0.9%
same,"threshold, amplitude or duration of evoked synaptic potentials","[3]; Cpd5 10 μM, cortical layer 2/3 projection neurons, acute slices",No significant differences
